Data as given in patent publication US5057512A, “3-amino-2-oxo-azetidine-1-sulfonic acids” (Uclaf; Roussel, priority 1981, dated 1991).

Columns and labels:
Experiment in all cases: M.I.C., dilutions in liquid medium
Type in all cases: cell-based
[1] = test system: Salmonella typhimurium 420; details: Salmonella enterica, 37° C.
Description: (§1) A. Activity in Vitro-Method of Dilutions in Liquid Medium
(§2) A series of tubes was prepared in which the same amount of sterile nutritive medium was distributed and there was distributed in each tube increasing amounts of the test product. Then, each tube was inoculated with a bacterial strain and after incubation for twenty-four or forty-eight hours in an oven at 37° C., the inhibition of the growth was evaluated by trans-illumination to determine the minimum inhibiting concentrations (M.I.C.), expressed in μg/ml.

[2] = test system: Proteus mirabilis (indol -) A 235; details: Proteus mirabilis, 37° C.
Description: as §1, §2

[3] = test system: Proteus vulgaris (indol +) A 232; details: Proteus vulgaris, 37° C.
Description: as §1, §2

[4] = test system: Escherichia Coli Resistant to Gentamycine Tobramycine R55 123 D; details: 37° C.
Description: as §1, §2

[5] = test system: Klebsiella Pneumoniae Exp. 52145; details: 37° C.; for MIC: Klebsiella pneumoniae
Description: as §1, §2

[6] = test system: Escherichia Coli Resistant to Tetracycline AT CC 11 303; details: 37° C.
Description: as §1, §2

Providencia Du 48 = details: Providencia, DU48, 37° C.
Description: as §1, §2

[7] = test system: Escherichia Coli Sensitive to Tetracycline 7624; details: 37° C.
Description: as §1, §2

[8] = test system: Klebsiella Pneumoniae 2536 Resistant Gentamycine; details: 37° C.
Description: as §1, §2

[9] = test system: Serratia Resistant to Gentamycine 2 532; details: 37° C.; for MIC: Serratia
Description: as §1, §2

Escherichia coli 0 78 = details: 37° C.
Description: as §1, §2

[10] = test system: Enterobacter cloacae 1321 E; details: Enterobacter cloacae, 1321E, 37° C.
Description: as §1, §2

[11] = test system: Klebsiella aerogenes 1082 E; details: Klebsiella aerogenes, 1082E, 37° C.
Description: as §1, §2

Escherichia coli UC 1894 = details: Escherichia coli, UC1894, 37° C.
Description: as §1, §2

Escherichia coli T E M = details: Escherichia coli, 37° C.
Description: as §1, §2

Escherichia coli 1507 E = details: Escherichia coli, 1507E, 37° C.
Description: as §1, §2

Escherichia coli DC 0 = details: Escherichia coli, 37° C.
Description: as §1, §2

[12] = test system: Klebsiella aerogenes 1522 E; details: Klebsiella aerogenes, 1522E, 37° C.
Description: as §1, §2

Escherichia coli DC 2 = details: Escherichia coli, DC2, 37° C.
Description: as §1, §2

[13] = test system: Pseudomonas aeruginosa 1771 m; details: Pseudomonas aeruginosa, 1771M, 37° C.
Description: as §1, §2

[14] = test system: Salmonella typhimurium MZ 11; details: Salmonella enterica, TYPHIMURIUM, 37° C.
Description: as §1, §2

[15] = Escherichia coli, 078, 24 h, 24 H
[16] = Escherichia coli, 078, 48 h, 48 H

| Structure (SMILES) | MIC ([2]; 24 h) | MIC ([2]; 48 h) | MIC ([3]; 24 Hr.) | MIC ([3]; 48 Hr.) | MIC ([5]; 24 h) | MIC ([5]; 48 h) | MIC (Providencia Du 48; 24 Hr.) | MIC (Providencia Du 48; 48 Hr.) | MIC ([9]; 24 h) | MIC ([9]; 48 h) | MIC (Escherichia coli 0 78; [15]) | MIC (Escherichia coli 0 78; [16]) | MIC ([10]; 24 H) | MIC ([10]; 48 H) | MIC (Escherichia coli UC 1894; 24 H) | MIC (Escherichia coli UC 1894; 48 H) | MIC (Escherichia coli T E M; 24 h) | MIC (Escherichia coli T E M; 48 h) | MIC (Escherichia coli 1507 E; 24 h) | MIC (Escherichia coli 1507 E; 48 h) | further results |
| --- | --- | --- | --- | --- | --- | --- | --- | --- | --- | --- | --- | --- | --- | --- | --- | --- | --- | --- | --- | --- | --- |
| NCCON=C(C(=O)NC1C(=O)N(S(=O)(=O)O)C1CCl)c1csc(N)n1 (mixture of isomers) [Example 3, Racemate of syn isomer of cis 4-chloromethyl-3[2(2-amino-4-thiazolyl)-2-(2-aminoethoxy)-imino-acetamido]-2-oxo-azetidine-1-sulfonic acid] | 0.6 µg/mL | 0.6 µg/mL | 1.2 µg/mL | 1.2 µg/mL | 5 µg/mL | 10 µg/mL | 2.5 µg/mL | 2.5 µg/mL | 2.5 µg/mL | 5 µg/mL |  |  |  |  |  |  |  |  |  |  | MIC ([1]; 24 Hr.): 2.5 µg/mL; MIC ([1]; 48 Hr.): 5 µg/mL; MIC ([4]; 24 Hr.): 1.2 µg/mL; MIC ([4]; 48 Hr.): 1.2 µg/mL; MIC ([6]; 24 Hr.): 0.6 µg/mL; MIC ([6]; 48 Hr.): 0.6 µg/mL; MIC ([7]; 24 Hr.): 1.2 µg/mL; MIC ([7]; 48 Hr.): 1.2 µg/mL; MIC ([8]; 24 Hr.): 2.5 µg/mL; MIC ([8]; 48 Hr.): 2.5 µg/mL |
| Nc1nc(C(=NO)C(=O)NC2C(=O)N(S(=O)(=O)O)C2CCl)cs1 (mixture of isomers) [Example 4, Racemate of syn isomer of cis 4-chloromethyl-3-[2-(2-amino-4-thiazolyl)-2-hydroxyimino-acetamido]-2-oxo-azetidine-1-sulfonic acid] | 0.6 µg/mL | 1.2 µg/mL | 0.6 µg/mL | 0.6 µg/mL | 5 µg/mL | 5 µg/mL | 0.6 µg/mL | 1.2 µg/mL | 5 µg/mL | 5 µg/mL |  |  |  |  |  |  |  |  |  |  | MIC ([1]; 24 Hr.): 1.2 µg/mL; MIC ([1]; 48 Hr.): 2.5 µg/mL; MIC ([4]; 24 Hr.): 0.6 µg/mL; MIC ([4]; 48 Hr.): 0.6 µg/mL; MIC ([6]; 24 Hr.): 0.6 µg/mL; MIC ([6]; 48 Hr.): 0.6 µg/mL; MIC ([7]; 24 Hr.): 0.6 µg/mL; MIC ([7]; 48 Hr.): 0.6 µg/mL; MIC ([8]; 24 Hr.): 2.5 µg/mL; MIC ([8]; 48 Hr.): 2.5 µg/mL |
| CON=C(C(=O)NC1C(=O)N(S(=O)(=O)O)C1CF)c1csc(N)n1 (mixture of isomers) [Example 5, Racemate of syn isomer of cis 4-fluoromethyl-3-[2-(2-amino-4-thiazolyl)-2-methoxyimino-acetamido]-2-oxo-azetidine-1-sulfonic acid] | 0.08 µg/mL | 0.08 µg/mL | ≤ 0.04 µg/mL | ≤ 0.04 µg/mL |  | 0.3 µg/mL | 0.3 µg/mL | 0.3 µg/mL |  | 1.2 µg/mL | 0.15 µg/mL | 0.15 µg/mL | 0.08 µg/mL | 0.08 µg/mL | ≤ 0.04 µg/mL | ≤ 0.04 µg/mL | 0.15 µg/mL | 0.15 µg/mL | 0.15 µg/mL | 0.15 µg/mL | M.I.C. ([5]; 24 Hr.): 0.3 µg/mL; MIC ([11]; 24 h): 5 µg/mL; MIC ([11]; 48 h): 5 µg/mL; MIC (Escherichia coli DC 0; DC0, 24 h, 24 H): 0.3 µg/mL; MIC (Escherichia coli DC 0; DC0, 48 h, 48 H): 0.3 µg/mL; MIC ([12]; 24 h): 0.15 µg/mL; MIC ([12]; 48 h): 0.15 µg/mL; MIC (Escherichia coli DC 2; 24 H): 0.15 µg/mL; MIC (Escherichia coli DC 2; 48 H): 0.3 µg/mL; MIC ([13]; 24 H): 0.6 µg/mL; MIC ([13]; 48 H): 1.2 µg/mL; MIC ([14]; 24 h): 0.08 µg/mL; MIC ([14]; 48 h): 0.08 µg/mL; M.I.C. ([9]; 24 Hr.): 0.06 µg/mL |
| CC(C)(ON=C(C(=O)NC1C(=O)N(S(=O)(=O)O)C1CF)c1csc(N)n1)C(=O)O (mixture of isomers) [Example 6, Racemate of syn isomer of cis 4-fluoromethyl-3-[2-(2-amino-4-thiazolyl)-2-(1-carboxy-1-methyl-ethoxy)-imino-acetamido]-2-oxo-azetidine-1-sulfonic acid] | ≤ 0.04 µg/mL | ≤ 0.04 µg/mL | ≤ 0.04 µg/mL | ≤ 0.04 µg/mL | 0.6 µg/mL | 0.6 µg/mL | 0.15 µg/mL | 0.15 µg/mL | 0.3 µg/mL | 0.3 µg/mL | 0.3 µg/mL | 0.3 µg/mL | 0.3 µg/mL | 0.3 µg/mL | 0.08 µg/mL | 0.08 µg/mL | 0.6 µg/mL | 0.6 µg/mL | 0.6 µg/mL | 0.6 µg/mL | MIC ([11]; 24 h): 0.6 µg/mL; MIC ([11]; 48 h): 0.6 µg/mL; MIC (Escherichia coli DC 0; DC0, 24 h, 24 H): 0.6 µg/mL; MIC (Escherichia coli DC 0; DC0, 48 h, 48 H): 0.6 µg/mL; MIC ([12]; 24 h): 0.3 µg/mL; MIC ([12]; 48 h): 0.3 µg/mL; MIC (Escherichia coli DC 2; 24 H): 0.3 µg/mL; MIC (Escherichia coli DC 2; 48 H): 0.3 µg/mL; MIC ([13]; 24 H): 0.3 µg/mL; MIC ([13]; 48 H): 0.6 µg/mL; MIC ([14]; 24 h): 0.6 µg/mL; MIC ([14]; 48 h): 0.6 µg/mL |
| Nc1nc(C(=NOC(F)F)C(=O)NC2C(=O)N(S(=O)(=O)O)C2CF)cs1 (mixture of isomers) [Example 8, Racemate of the syn isomer of cis 4-fluoromethyl-3-[2-(2-amino-4-thiazolyl)-2-difluoromethoxyimino-acetamido]-2-oxo-azetidine-1-sulfonic acid] | ≤ 0.04 µg/mL | ≤ 0.04 µg/mL | ≤ 0.04 µg/mL | ≤ 0.04 µg/mL | 0.3 µg/mL | 0.3 µg/mL | 0.3 µg/mL | 0.3 µg/mL | 0.6 µg/mL | 0.6 µg/mL | 0.08 µg/mL | 0.08 µg/mL | 0.08 µg/mL | 0.08 µg/mL | ≤ 0.04 µg/mL | ≤ 0.08 µg/mL | 0.15 µg/mL | 0.15 µg/mL | ≤ 0.04 µg/mL | ≤ 0.04 µg/mL | MIC (Escherichia coli DC 0; DC0, 24 h, 24 H): 0.08 µg/mL; MIC (Escherichia coli DC 0; DC0, 48 h, 48 H): 0.08 µg/mL; MIC ([12]; 24 h): 0.08 µg/mL; MIC ([12]; 48 h): 0.08 µg/mL; MIC (Escherichia coli DC 2; 24 H): ≤ 0.04 µg/mL; MIC (Escherichia coli DC 2; 48 H): ≤ 0.04 µg/mL; MIC ([14]; 24 h): 0.08 µg/mL; MIC ([14]; 48 h): 0.08 µg/mL |
